Experimental data taken from paper PMC7377239, “Cardiovascular Effects of Polychlorinated Biphenyls and Their Major Metabolites” (Environmental Health Perspectives, 2020).
Counter-ions that a name gives are not always drawn. Like-named read-outs stand apart in the source and are kept apart here.

What was measured:
[1] = system: iCell endothelial cells (human iPSC-derived ECs); assay: Tube formation (tubulogenesis) assay in iCell endothelial cells, 18 h; format: cell-based; conditions: Homo sapiens, Endothelial cell, 18 hr; for activity at 0.1 µM: 0.10 µM
How it was run: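 iCell ECs (passages 1–5) seeded 7,500 cells/well on reduced-growth-factor Geltrex in starvation medium, exposed overnight at 37°C to compounds in triplicate concentration–response (0.5% DMSO vehicle). Calcein AM staining, 4× imaging, angiogenesis image analysis; readouts normalized to vehicle, four-parameter logistic fit, POD at 1 SD of vehicle; 100 μM assigned NOAEL if no response.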

HUVECs = assay: Tube formation (tubulogenesis) assay in HUVECs, 18 h; format: cell-based, human; conditions: Homo sapiens, HUVEC, 18 h; for activity at 0.1 µM: 0.10 µM
How it was run: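 HUVECs (passage 1–5) seeded on reduced-growth-factor basement membrane and exposed to compounds overnight at 37°C, 5% CO2, in 2× maintenance medium with 12.5 ng/mL VEGF; 0.5% DMSO vehicle. Calcein AM-stained tube networks imaged and analysed; vehicle-normalized readouts fit to four-parameter logistic, POD set at one SD of vehicle means.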

[2] = iPSC-EC tube formation, 0.00 µM control = 100.00, read-out: endo.mtl.18hr
[3] = iPSC-EC tube formation, 0.00 µM control = 100.00, read-out: endo.tlps.18hr
[4] = iPSC-EC tube formation, 0.00 µM control = 100.00, read-out: endo.tta.18hr
[5] = iPSC-EC tube formation, 0.00 µM control = 100.00, read-out: endo.ttl.18hr
[6] = HUVECs, 0.00 µM = 100.00, read-out: huvec.mtl.18hr
[7] = HUVECs, 0.00 µM = 100.00, read-out: huvec.tlps.18hr
[8] = HUVECs, 0.00 µM = 100.00, read-out: huvec.tta.18hr
[9] = HUVECs, 0.00 µM = 100.00, read-out: huvec.ttl.18hr

`O=S(=O)(O)Oc1cccc(-c2ccc(Cl)cc2)c1` [3'-yl PCB 3 sulfate] showed an activity at 0.01 µM [1, 2] of 93.5%, an activity at 0.01 µM [1, 3] of 81.8% and an activity at 0.01 µM [1, 4] of 112%. It also gave an activity at 0.01 µM [1, 5] of 103%, an activity at 0.1 µM [1, 2] of 87.9% and an activity at 0.1 µM [1, 3] of 126%. The activity at 0.1 µM [1, 4] was 93%, the activity at 0.1 µM [1, 5] was 88.2% and the activity at 1 µM [1, 2] was 91.5%. For the same molecule, the activity at 1 µM [1, 3] was 103%, the activity at 1 µM [1, 4] was 108% and the activity at 1 µM [1, 5] was 98.9%. It also gave an activity at 10 µM [1, 2] of 70.7%, an activity at 10 µM [1, 3] of 99.4% and an activity at 10 µM [1, 4] of 63.7%. The activity at 10 µM [1, 5] was 60%, the activity at 100 µM [1, 2] was 59.2% and the activity at 100 µM [1, 3] was 33.7%. For the same molecule, the activity at 100 µM [1, 4] was 59.5%, the activity at 100 µM [1, 5] was 60.4% and the minimal effective concentration ([1]; iPSC-EC tube formation, top concentration 100.00 µM, read-out: endo.mtl.18hr POD) was 0.58 µM. It also gave a minimal effective concentration ([1]; iPSC-EC tube formation, top concentration 100.00 µM, read-out: endo.tlps.18hr POD) of 38.6 µM, a minimal effective concentration ([1]; iPSC-EC tube formation, top concentration 100.00 µM, read-out: endo.tta.18hr POD) of 11.6 µM and a minimal effective concentration ([1]; iPSC-EC tube formation, top concentration 100.00 µM, read-out: endo.ttl.18hr POD) of 8.75 µM. It also gave an activity at 0.01 µM (HUVECs; [6]) of 106%, an activity at 0.01 µM (HUVECs; [7]) of 119% and an activity at 0.01 µM (HUVECs; [8]) of 121%. The activity at 0.01 µM (HUVECs; [9]) was 112%, the activity at 0.1 µM (HUVECs; [6]) was 110% and the activity at 0.1 µM (HUVECs; [7]) was 121%. It also gave an activity at 0.1 µM (HUVECs; [8]) of 141%, an activity at 0.1 µM (HUVECs; [9]) of 142% and an activity at 1 µM (HUVECs; [6]) of 111%. It also gave an activity at 1 µM (HUVECs; [7]) of 129%, an activity at 1 µM (HUVECs; [8]) of 141% and an activity at 1 µM (HUVECs; [9]) of 137%. The activity at 10 µM (HUVECs; [6]) was 97.5%, the activity at 10 µM (HUVECs; [7]) was 141% and the activity at 10 µM (HUVECs; [8]) was 104%. The activity at 10 µM (HUVECs; [9]) was 102%, the activity at 100 µM (HUVECs; [6]) was 58% and the activity at 100 µM (HUVECs; [7]) was 37.8%. It also gave an activity at 100 µM (HUVECs; [8]) of 52.3%, an activity at 100 µM (HUVECs; [9]) of 58.3% and a minimal effective concentration (HUVECs; HUVECs, top concentration 100.00 µM, read-out: huvec.mtl.18hr POD) of 15.5 µM. The minimal effective concentration (HUVECs; HUVECs, top concentration 100.00 µM, read-out: huvec.tlps.18hr POD) was 100 µM, the minimal effective concentration (HUVECs; HUVECs, top concentration 100.00 µM, read-out: huvec.tta.18hr POD) was 100 µM and the minimal effective concentration (HUVECs; HUVECs, top concentration 100.00 µM, read-out: huvec.ttl.18hr POD) was 100 µM.

In the case of `O=S(=O)(O)Oc1cc(-c2ccccc2)ccc1Cl` [3-PCB 3 sulfate], the minimal effective concentration ([1]; endothelial cells (endo), tube formation mtl, read-out: POD endo.mtl.18hr) was 100 µM, the minimal effective concentration ([1]; endothelial cells (endo), tube formation tlps, read-out: POD endo.tlps.18hr) was 6.75 µM and the minimal effective concentration ([1]; endothelial cells (endo), tube formation tta, read-out: POD endo.tta.18hr) was 100 µM. It also gave a minimal effective concentration ([1]; endothelial cells (endo), tube formation ttl, read-out: POD endo.ttl.18hr) of 100 µM, a minimal effective concentration (HUVECs; tube formation mtl, read-out: POD huvec.mtl.18hr) of 11.5 µM and a minimal effective concentration (HUVECs; tube formation tlps, read-out: POD huvec.tlps.18hr) of 65.8 µM. The minimal effective concentration (HUVECs; tube formation tta, read-out: POD huvec.tta.18hr) was 100 µM and the minimal effective concentration (HUVECs; tube formation ttl, read-out: POD huvec.ttl.18hr) was 52.1 µM.
